Experimental data taken from US20220235049A1, “SUBSTITUTED PYRROLO [2, 3-b] PYRIDINE AND PYRAZOLO [3,4-b] PYRIDINE DERIVATIVES AS PROTEIN KINASE INHIBITORS” (Fochon Pharmaceuticals, Ltd., priority 2019, published 2022).

Tested on: DOHH2 cells
Experiment: Cell proliferation assay in DOHH2 cells (MTS)
Assay type: cell-based
Conditions: Homo sapiens, DOHH-2, 120 h
Protocol: To investigate whether a compound is able to inhibit the activity of BTK in cells, a mechanism-based assay using DOHH2 (DSMZ catalog #: ACC47) cell was developed. In this assay, inhibition of BTK was detected by the inhibition of DOHH2 cells proliferation. Cells were collected and plated onto 96-well plates at the optimized cell density (5000 cells/well). Plates were incubated at 37° C., with 5% CO2 for 4 h. Compounds were serially diluted and added to the plates with the final concentrations as 10000, 3333.3, 1111.1, 370.4, 123.5, 41.2, 13.7, 4.6 and 1.5 nM. Plates were incubated at 37° C., with 5% CO2 for 120 h. An aliquot of 20 μL MTS/100 μL medium mixture solution were added to each well and the plates were incubated for exactly 2 h. The reaction was stopped by adding 25 μL 10% SDS to each well. The absorbance was measured by a microplate reader at 490 nm and 650 nm (reference wavelength). IC50 was calculated using GraphPad Prism 5.0.
Select compounds prepared as described above were assayed according to the biological procedures described herein.

| Structure (SMILES) | IC50 |
| --- | --- |
| Cc1cc(Oc2ccccc2F)ncc1C(=O)c1c[nH]c2ncc(F)c(N[C@@H]3CC[C@@H](CO)OC3)c12 [Example 117, (5-fluoro-4-(((3R,6S)-6-(hydroxymethyl)tetrahydro-2H-pyran-3-yl)amino)-1H-pyrrolo[2,3-b]pyridin-3-yl)(6-(2-fluorophenoxy)-4-methylpyridin-3-yl)methanone] | 69 nM |
| O=C(c1ccc(Oc2ccccc2F)cc1Cl)c1c[nH]c2ncc(F)c(N[C@@H]3CC[C@@H](CO)OC3)c12 [Example 125, (2-chloro-4-(2-fluorophenoxy)phenyl)(5-fluoro-4-(((3R,6S)-6-(hydroxymethyl)tetrahydro-2H-pyran-3-yl)amino)-1H-pyrrolo[2,3-b]pyridin-3-yl)methanone] | 1 nM |
| Cc1cc(Oc2ccccc2F)ccc1C(=O)c1c[nH]c2ncc(F)c(N[C@@H]3CC[C@@H](CO)OC3)c12 [Example 126, (5-fluoro-4-(((3R,6S)-6-(hydroxymethyl)tetrahydro-2H-pyran-3-yl)amino)-1H-pyrrolo[2,3-b]pyridin-3-yl)(4-(2-fluorophenoxy)-2-methylphenyl)methanone] | 4 nM |
| Cc1cc(Oc2ccccc2F)cc(F)c1C(=O)c1c[nH]c2nccc(N[C@@H]3CC[C@@H](CO)OC3)c12 [Example 130, (2-fluoro-4-(2-fluorophenoxy)-6-methylphenyl)(4-(((3R,6S)-6-(hydroxymethyl)tetrahydro-2H-pyran-3-yl)amino)-1H-pyrrolo[2,3-b]pyridin-3-yl)methanone] | 36 nM |
| COc1cnc2[nH]cc(C(=O)c3c(C)cc(Oc4ccccc4F)cc3F)c2c1N[C@@H]1CC[C@@H](CO)OC1 [Example 132, (2-fluoro-4-(2-fluorophenoxy)-6-methylphenyl)(4-(((3R,6S)-6-(hydroxymethyl)tetrahydro-2H-pyran-3-yl)amino)-5-methoxy-1H-pyrrolo[2,3-b]pyridin-3-yl)methanone] | 7 nM |
| COc1cnc2[nH]cc(C(=O)c3ccc(Oc4ccccc4)cc3C)c2c1N[C@@H]1CC[C@@H](CO)OC1 [Example 134, (4-(((3R,6S)-6-(hydroxymethyl)tetrahydro-2H-pyran-3-yl)amino)-5-methoxy-1H-pyrrolo[2,3-b]pyridin-3-yl)(2-methyl-4-phenoxyphenyl)methanone] | 1 nM |
| CCOc1cnc2[nH]cc(C(=O)c3c(C)cc(Oc4ccccc4F)cc3F)c2c1N[C@@H]1CC[C@@H](CO)OC1 [Example 135, (5-ethoxy-4-(((3R,6S)-6-(hydroxymethyl)tetrahydro-2H-pyran-3-yl)amino)-1H-pyrrolo[2,3-b]pyridin-3-yl)(2-fluoro-4-(2-fluorophenoxy)-6-methylphenyl)methanone] | 1 nM |
| COc1cnc2[nH]cc(C(=O)c3ccc(Oc4ccccc4F)cc3F)c2c1N[C@@H]1CC[C@@H](CNC(C)=O)OC1 [Example 160, N-(((2S,5R)-5-((3-(2-fluoro-4-(2-fluorophenoxy)benzoyl)-5-methoxy-1H-pyrrolo[2,3-b]pyridin-4-yl)amino)tetrahydro-2H-pyran-2-yl)methyl)acetamide] | 1 nM |
| COc1cnc2[nH]cc(C(=O)c3ccc(Oc4ccccc4F)cc3F)c2c1N[C@@H]1CC[C@@H](CNS(C)(=O)=O)OC1 [Example 161, N-(((2S,5R)-5-((3-(2-fluoro-4-(2-fluorophenoxy)benzoyl)-5-methoxy-1H-pyrrolo[2,3-b]pyridin-4-yl)amino)tetrahydro-2H-pyran-2-yl)methyl)methanesulfonamide] | 14 nM |
| COC(=O)NC[C@@H]1CC[C@@H](Nc2c(OC)cnc3[nH]cc(C(=O)c4ccc(Oc5ccccc5F)cc4F)c23)CO1 [Example 163, methyl (((2S,5R)-5-((3-(2-fluoro-4-(2-fluorophenoxy)benzoyl)-5-methoxy-1H-pyrrolo[2,3-b]pyridin-4-yl)amino)tetrahydro-2H-pyran-2-yl)methyl)carbamate] | 45 nM |
| COc1cnc2[nH]cc(C(=O)c3ccc(Oc4ccccc4F)cc3F)c2c1N[C@@H]1CCC(CO)(CO)OC1 [Example 164, (R)-(4-((6,6-bis(hydroxymethyl)tetrahydro-2H-pyran-3-yl)amino)-5-methoxy-1H-pyrrolo[2,3-b]pyridin-3-yl)(2-fluoro-4-(2-fluorophenoxy)phenyl)methanone] | 22 nM |
| COc1cnc2[nH]cc(C(=O)c3ccc(Oc4ccccc4)cc3)c2c1N[C@@H]1CC[C@@H](CO)OC1 [Example 177, (4-(((3R,6S)-6-(hydroxymethyl)tetrahydro-2H-pyran-3-yl)amino)-5-methoxy-1H-pyrrolo[2,3-b]pyridin-3-yl)(4-phenoxyphenyl)methanone] | 9 nM |
| CCOc1cnc2[nH]cc(C(=O)c3ccc(Oc4ccccc4)cc3)c2c1N[C@@H]1CC[C@@H](CO)OC1 [Example 178, (5-ethoxy-4-(((3R,6S)-6-(hydroxymethyl)tetrahydro-2H-pyran-3-yl)amino)-1H-pyrrolo[2,3-b]pyridin-3-yl)(4-phenoxyphenyl)methanone] | 15 nM |
| O=C(c1ccc(Oc2c(F)cccc2F)cc1)c1c[nH]c2ncc(F)c(N[C@@H]3CC[C@@H](CO)OC3)c12 [Example 183, (4-(2,6-difluorophenoxy)phenyl)(5-fluoro-4-(((3R,6S)-6-(hydroxymethyl)tetrahydro-2H-pyran-3-yl)amino)-1H-pyrrolo[2,3-b]pyridin-3-yl)methanone] | 17 nM |
| COc1cnc2[nH]cc(C(=O)c3ccc(Oc4c(F)cccc4F)cc3)c2c1N[C@@H]1CC[C@@H](CO)OC1 [Example 184, (4-(2,6-difluorophenoxy)phenyl)(4-(((3R,6S)-6-(hydroxymethyl)tetrahydro-2H-pyran-3-yl)amino)-5-methoxy-1H-pyrrolo[2,3-b]pyridin-3-yl)methanone] | 1 nM |
| Cc1cc(Oc2c(F)cccc2F)ccc1C(=O)c1c[nH]c2ncc(F)c(N[C@@H]3CC[C@@H](CO)OC3)c12 [Example 185, (4-(2,6-difluorophenoxy)-2-methylphenyl)(5-fluoro-4-(((3R,6S)-6-(hydroxymethyl)tetrahydro-2H-pyran-3-yl)amino)-1H-pyrrolo[2,3-b]pyridin-3-yl)methanone] | 14 nM |
| COc1cnc2[nH]cc(C(=O)c3ccc(Oc4c(F)cccc4F)cc3Cl)c2c1N[C@@H]1CC[C@@H](CO)OC1 [Example 186, (2-chloro-4-(2,6-difluorophenoxy)phenyl)(4-(((3R,6S)-6-(hydroxymethyl)tetrahydro-2H-pyran-3-yl)amino)-5-methoxy-1H-pyrrolo[2,3-b]pyridin-3-yl)methanone] | 17 nM |
| O=C(c1ccc(Oc2c(F)cccc2F)cc1Cl)c1c[nH]c2ncc(F)c(N[C@@H]3CC[C@@H](CO)OC3)c12 [Example 187, (2-chloro-4-(2,6-difluorophenoxy)phenyl)(5-fluoro-4-(((3R,6S)-6-(hydroxymethyl)tetrahydro-2H-pyran-3-yl)amino)-1H-pyrrolo[2,3-b]pyridin-3-yl)methanone] | 52 nM |
| COc1cnc2[nH]cc(C(=O)c3ccc(Oc4c(F)cccc4F)cc3C)c2c1N[C@@H]1CC[C@@H](CO)OC1 [Example 188, (4-(2,6-difluorophenoxy)-2-methylphenyl)(4-(((3R,6S)-6-(hydroxymethyl)tetrahydro-2H-pyran-3-yl)amino)-5-methoxy-1H-pyrrolo[2,3-b]pyridin-3-yl)methanone] | 4 nM |
| O=C(c1ccc(Oc2c(F)cccc2F)cc1Cl)c1c[nH]c2ncc(Cl)c(N[C@@H]3CC[C@@H](CO)OC3)c12 [Example 189, (5-chloro-4-(((3R,6S)-6-(hydroxymethyl)tetrahydro-2H-pyran-3-yl)amino)-1H-pyrrolo[2,3-b]pyridin-3-yl)(2-chloro-4-(2,6-difluorophenoxy)phenyl)methanone] | 32 nM |
| O=C(c1ccc(Oc2c(F)cccc2F)cc1)c1c[nH]c2ncc(Cl)c(N[C@@H]3CC[C@@H](CO)OC3)c12 [Example 190, (5-chloro-4-(((3R,6S)-6-(hydroxymethyl)tetrahydro-2H-pyran-3-yl)amino)-1H-pyrrolo[2,3-b]pyridin-3-yl)(4-(2,6-difluorophenoxy)phenyl)methanone] | 11 nM |
| COc1cnc2[nH]cc(C(=O)c3ccc(Oc4ccccc4)cc3F)c2c1N[C@@H]1CC[C@@H](CO)OC1 [Example 191, (2-fluoro-4-phenoxyphenyl)(4-(((3R,6S)-6-(hydroxymethyl)tetrahydro-2H-pyran-3-yl)amino)-5-methoxy-1H-pyrrolo[2,3-b]pyridin-3-yl)methanone] | 1 nM |
| COc1cnc2[nH]cc(C(=O)c3ccc(Oc4c(F)cccc4F)cc3F)c2c1N[C@@H]1CC[C@@H](CO)OC1 [Example 192, (4-(2,6-difluorophenoxy)-2-fluorophenyl)(4-(((3R,6S)-6-(hydroxymethyl)tetrahydro-2H-pyran-3-yl)amino)-5-methoxy-1H-pyrrolo[2,3-b]pyridin-3-yl)methanone] | 8 nM |
| COc1cnc2[nH]cc(C(=O)c3c(F)cc(Oc4c(F)cccc4F)cc3F)c2c1N[C@@H]1CC[C@@H](CO)OC1 [Example 193, (4-(2,6-difluorophenoxy)-2,6-difluorophenyl)(4-(((3R,6S)-6-(hydroxymethyl)tetrahydro-2H-pyran-3-yl)amino)-5-methoxy-1H-pyrrolo[2,3-b]pyridin-3-yl)methanone] | 12 nM |
| COc1cnc2[nH]cc(C(=O)c3c(F)cc(Oc4ccccc4F)cc3F)c2c1N[C@@H]1CC[C@@H](CO)OC1 [Example 194, (2,6-difluoro-4-(2-fluorophenoxy)phenyl)(4-(((3R,6S)-6-(hydroxymethyl)tetrahydro-2H-pyran-3-yl)amino)-5-methoxy-1H-pyrrolo[2,3-b]pyridin-3-yl)methanone] | 26 nM |
| COc1cnc2[nH]cc(C(=O)c3ccc(Oc4ncccc4F)cc3F)c2c1N[C@@H]1CC[C@@H](CO)OC1 [Example 195] | 83 nM |
